Experiments:
Format in all cases: in vivo
[1] = test system: barnyard grass; test: Herbicidal activity test against upland field weeds (foliar treatment test); parameters: key to Foliar treatment herbicidal activity, barnyard grass: 0 (no control); 100 (complete control); conditions: 50 g ai/ha, scale 0-100; for pest or weed control at 50 g/ha: Echinochloa crus-galli
Summary of the method: (§1)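 Visual 0–100 control ratings relative to untreated plants, taken 14 (or 21) days after spraying foliage at 50 or 75 g a.i./ha. Spray solution: 50% acetone with 0.1% Tween-20; plants kept in greenhouse at 30±5 °C, 14 h light/10 h dark.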

[2] = test system: quack grass; test: as above; parameters: key to Foliar treatment herbicidal activity, quack grass: 0 (no control); 100 (complete control); conditions: 50 g ai/ha, scale 0-100
Summary of the method: as §1

[3] = test system: fall panicum; test: as above; conditions: 50 g ai/ha, scale 0-100; for pest or weed control at 50 g/ha: Panicum dichotomiflorum
Summary of the method: as §1

[4] = test system: indian jointvetch; test: Herbicidal activity test against upland field weeds (soil treatment test); parameters: key to Soil treatment herbicidal activity, Indian jointvetch: 0 (no control); 100 (complete control); conditions: 50 g ai/ha, scale 0 (no control) to 100 (complete control)
Summary of the method: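 Weed control scored visually on a 0 (none) to 100 (complete) scale versus untreated pots at 14 or 21 days in greenhouse (30±5 °C, 14 h light). Test compounds, 50 or 75 g a.i./ha in 50% acetone/0.1% Tween-20, hand-sprayed onto soil one day post-sowing.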

[5] = test system: corn; test: Phytotoxicity test for upland field crops (foliar treatment test); parameters: key: 0 (no harm); 9 (complete withered)
Summary of the method: (§2)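 Post-emergence spray at 19–300 g a.i./ha (acetone/Tween-20 diluent, 100 ml/m²) onto greenhouse-grown plants. Damage rated 7 and 14 (optionally 21) days later on a 0–9 scale relative to untreated plants.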

[6] = test system: cotton; test: as above; parameters: key: 0 (no harm); 9 (complete withered)
Summary of the method: as §2

[7] = test system: rice; test: as above; parameters: key: 0 (no harm); 9 (complete withered)
Summary of the method: as §2

[8] = test system: soybean; test: as above; parameters: key: 0 (no harm); 9 (complete withered)
Summary of the method: as §2

[9] = test system: wheat; test: as above; parameters: key: 0 (no harm); 9 (complete withered)
Summary of the method: as §2

[10] = test system: bindweed; test: Herbicidal activity test against upland field weeds (foliar treatment test); parameters: key to Foliar treatment herbicidal activity, Bindweed: 0 (no control); 100 (complete control); conditions: 50 g ai/ha, scale 0-100
Summary of the method: as §1

[11] = 50 g ai/ha, Corn (7 days after treatment)
[12] = 50 g ai/ha, Corn (14 days after treatment)
[13] = 100 g ai/ha, Corn (7 days after treatment)
[14] = 100 g ai/ha, Corn (14 days after treatment)
[15] = 50 g ai/ha, Wheat (7 days after treatment)
[16] = 50 g ai/ha, Wheat (14 days after treatment)
[17] = 100 g ai/ha, Wheat (7 days after treatment)
[18] = 100 g ai/ha, Wheat (14 days after treatment)

| Structure (SMILES) | pest or weed control at 50 g/ha [1] [%] | Foliar treatment herbicidal activity, quack grass [2] | pest or weed control at 50 g/ha [3] [%] | Soil treatment herbicidal activity, Indian jointvetch [4] | Foliar treatment phytotoxicity, Corn [5, 11] | Foliar treatment phytotoxicity, Corn [5, 12] | Foliar treatment phytotoxicity, Corn [5, 13] | Foliar treatment phytotoxicity, Corn [5, 14] | Foliar treatment phytotoxicity, Wheat [9, 15] | Foliar treatment phytotoxicity, Wheat [9, 16] | Foliar treatment phytotoxicity, Wheat [9, 17] | Foliar treatment phytotoxicity, Wheat [9, 18] | pest or weed control at 50 g/ha [10] [%] | Foliar treatment herbicidal activity, barnyard grass [1] | also measured |
| --- | --- | --- | --- | --- | --- | --- | --- | --- | --- | --- | --- | --- | --- | --- | --- |
| Cn1nnnc1COc1nc(C(F)(F)F)ccc1C(=O)Nc1nnnn1C [Compound No. 1-1, N-(1-methyl-1H-tetrazol-5-yl)-2-((1-methyl-1H-tetrazol-5-yl)methoxy)-6-(trifluoromethyl)nicotinamide] | 98 | 0 | 95 | 0 | 2 | 2 | 4 | 4 | 1 | 1 | 3 | 2 |  |  | Foliar treatment phytotoxicity, Cotton ([6]; 50 g ai/ha, Cotton (7 days after treatment)): 3; Foliar treatment phytotoxicity, Cotton ([6]; 50 g ai/ha, Cotton (14 days after treatment)): 0; Foliar treatment phytotoxicity, Cotton ([6]; 100 g ai/ha, Cotton (7 days after treatment)): 3; Foliar treatment phytotoxicity, Cotton ([6]; 100 g ai/ha, Cotton (14 days after treatment)): 7; Foliar treatment phytotoxicity, Rice ([7]; 50 g ai/ha, Rice (7 days after treatment)): 4; Foliar treatment phytotoxicity, Rice ([7]; 50 g ai/ha, Rice (14 days after treatment)): 8; Foliar treatment phytotoxicity, Rice ([7]; 100 g ai/ha, Rice (7 days after treatment)): 6; Foliar treatment phytotoxicity, Rice ([7]; 100 g ai/ha, Rice (14 days after treatment)): 9; Foliar treatment phytotoxicity, Soybean ([8]; 50 g ai/ha, Soybean (7 days after treatment)): 7; Foliar treatment phytotoxicity, Soybean ([8]; 50 g ai/ha, Soybean (14 days after treatment)): 0; Foliar treatment phytotoxicity, Soybean ([8]; 100 g ai/ha, Soybean (7 days after treatment)): 8; Foliar treatment phytotoxicity, Soybean ([8]; 100 g ai/ha, Soybean (14 days after treatment)): 9 |
| Cn1nnnc1COc1nc(C(F)(F)F)ccc1C(=S)Nc1nnnn1C [Compound No. 1-43, N-(1-methyl-1H-tetrazol-5-yl)-2-((1-methyl-1H-tetrazol-5-yl)methoxy)-6-(trifluoromethyl)pyridin-3-carbothioamide] | 95 |  | 95 | 0 |  |  |  |  |  |  |  |  | 70 |  | pest or weed control at 50 g/ha [2]: 30% |
| Cn1nnc(CS(=O)(=O)Cc2nc(C(F)(F)F)ccc2C(=O)Nc2nnnn2C)n1 [Compound No. 2-105, N-(1-methyl-1H-tetrazol-5-yl)-2-((((2-methyl-2H-tetrazol-5-yl)methyl)sulfonyl)methyl)-6-(trifluoromethyl)nicotinamide] |  | 0 | 50 |  | 0 | 0 | 0 | 0 | 3 | 4 | 4 | 4 | 80 | 0 | pest or weed control at 50 g/ha [4]: 90% |
| Cn1nnc(CSCc2nc(C(F)F)ccc2C(=O)Nc2nnnn2C)n1 [Compound No. 2-108, 6-(difluoromethyl)-N-(1-methyl-1H-tetrazol-5-yl)-2-((((2-methyl-2H-tetrazol-5-yl)methyl)thio)methyl)nicotinamide] | 60 | 0 | 50 | 0 | 0 | 0 | 0 | 0 | 3 | 3 | 4 | 4 | 90 |  |  |
| Cn1nnc(CSCc2nc(C(F)(F)F)ccc2C(=O)N(C(=O)c2ccccc2)c2nnnn2C)n1 [Compound No. 2-109, N-benzoyl-N-(1-methyl-1H-tetrazol-5-yl)-2-((((2-methyl-2H-tetrazol-5-yl)methyl)thio)methyl)-6-(trifluoromethyl)nicotinamide] |  | 0 | 95 | 0 | 0 | 0 | 0 | 0 | 2 | 2 | 3 | 3 | 98 | 100 |  |
| COc1nc(COCc2nc(C(F)(F)F)ccc2C(=O)Nc2nnnn2C)nn1C [Compound No. 2-129, 2-(((5-methoxy-1-methyl-1H-1,2,4-triazol-3-yl)methoxy)methyl)-N-(1-methyl-1H-tetrazol-5-yl)-6-(trifluoromethyl)nicotinamide] | 90 | 0 | 50 | 0 | 0 | 0 | 0 | 0 | 1 | 1 | 2 | 2 | 40 |  |  |
| CCOC(=O)OC(C)n1nnn(C)c1=NC(=O)c1ccc(C(F)(F)F)nc1CSCc1nnn(C)n1 (stereo not shown) [Compound No. 4-10, ethyl (1-(4-methyl-5-((2-((((2-methyl-2H-tetrazol-5-yl)methyl)thio)methyl)-6-(trifluoromethyl)nicotinoyl)imino)-4,5-dihydro-1H-tetrazol-1-yl)ethyl)carbonate] |  | 0 |  | 95BI | 2 | 1 | 3 | 1 | 0 | 0 | 0 | 0 |  | 98 | Foliar treatment herbicidal activity, Fall panicum [3]: 95; Foliar treatment herbicidal activity, Bindweed [10]: 100 |

Reference: patent US12495798B2, “Nicotinamide compound and herbicidal composition comprising compound” (KOREA RESEARCH INSTITUTE OF CHEMICAL TECHNOLOGY, priority 2019, dated 2025)
